According to patent EP2926811A1, “ARTEMETHER-CONTAINING PHARMACEUTICAL COMPOSITION, PREPARATION, AND USE THEREOF” (Kunming Pharmaceutical Corp., priority 2012, dated 2014):

Test system: nude-mouse transplanted tumor of human gastric cancer MKN-45
Experiment: growth of nude-mouse transplanted tumor of human gastric cancer MKN-45
Conditions: positive control, 10 mg/kg iv, day 19

## O=c1[nH]cc(F)c(=O)[nH]1 [5-Fu, 5-fluorouracil]
  RTV: 10.60±2.28
  T/C (%): 37.72%
